The values that follow come from patent publication US20240002391A1, “4-ALKOXYPYRROLO[2,1-F][1,2,4]TRIAZINES AND PREPARATION AND USES THEREOF” (BioSplice Therapeutics, Inc., priority 2022, published 2024).

The target in assay [1] is recombinant DYRK1A kinase (Homo sapiens (Human), UniProt Q13627). The assay can be described thus: DYRK1A kinase assay (Ser/Thr 18 peptide Z-lyte FRET). The assay is classed as biochemical. Conditions: DYRK1A kinase activity, Z-lyte Ser/Thr 18 peptide, 15 μM ATP; method text calls the value IC50; read-out: EC50 (the source's name). In outline: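 Z-lyte FRET: recombinant DYRK1A 0.25 μg/mL, ATP 15 μM, Ser/Thr 18 peptide 4 μM, with compound (11-point 1:3, 10 μM top) 1 h at room temperature, then development reagent 1 h. Coumarin/fluorescein emission ratio converted to % phosphorylation; IC50 by non-linear regression, duplicates.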

Assay [2] has as its system Tau phosphorylation at Thr212 (pThr212) in HEK293T cells transfected with DYRK1A and MAPT. As to the kind of experiment: Tau phosphorylation phosphoTau (Thr212) AlphaLISA assay in HEK293T cells transfected with DYRK1A and MAPT. Conditions: HEK-293T, HEK293T cells transiently transfected with human DYRK1A and MAPT, compound treatment 18-24 hours, read-out: pTau (Thr212) EC50. Format: cell-based. As for the experimental part: Representative compounds were screened using the assay procedure for tau phosphorylation activity described below.
HEK293T cells (ATCC, CRL3216) cultured in DMEM (Thermo Fisher Scientific, 10566024) supplemented with 10% FBS (Coming, 35-011—CV) and Penicillin/Streptomycin (Thermo Fisher Scientific, 15140163) were seeded in a 75 cm^2 flask at 8.1×10^6 cells/flask. The HEK293T cells were then transiently transfected with 5 μg DYRK1A (NM_001396) human untagged clone (OriGene, SC314641) and 2.5 μg MAPT (441 a.a. Tau gene) (NM_005910) human untagged clone (OriGene, TP313312) using Lipofectamine 3000 (Thermo Fisher Scientific, L30000015) and incubated for 20-30 hours in a humidified incubator at 37° C. and 5% CO^2. Post-incubation, HEK293T cells transfected with the DYRK1A and MAPT expression vectors were harvested and seeded in BioCoat poly-D lysine coated 96-well plates (Coming, 354461) at 3×10^4 cells/well.
The above synthesized compounds were screened using the cell assay procedure to assess decreased Tau phosphorylation at Thr212 (pThr212) described below.
Each compound was dissolved in DMSO (Sigma-Aldrich, D8418-100 mL) as a 10 mM stock. 10 mM stocks were serially diluted 1:3, 10-point dose-response curve and added to the cells with a final concentration ranging from 20 μM to 1.1 nM. Cells were treated with compounds in duplicate and incubated for 18-24 hours in a humidified incubator at 37° C. and 5% CO^2.
Following the overnight compound treatment, cells were lysed with 1X Alpha Surefire Ultra Lysis Buffer (Perkin Elmer, ALSU-LB-100ML) complemented with 1X Halt Phosphatase Inhibitor Cocktail (Thermo Fisher Scientific, 78427) and 1X Halt Protease Inhibitor Cocktail (Thermo Fisher Scientific, 78438). Lysates were spun down at 12,000 g for 10 min to remove any cellular debris and 5 μL of lysates were dispensed into a 384-well Opti-Plate (Perkin Elmer, 6007290) for the measurement of Tau phosphorylation in the phosphoTau (Thr212) AlphaLISA assay. Donor antibody, biotinylated HT7Tau (Thermo Fisher Scientific, MN1000B), and acceptor antibody, pThr212Tau (Thermo Fisher Scientific, 44740G) were both added to the cell lysates at a final concentration of 3 nM and incubated for 1 hour at room temperature. Following incubation of the lysates with the donor and acceptor antibodies, anti-rabbit IgG(Fc specific) AlphaLISA acceptor beads (Perkin Elmer, AL104C) were added at a 10 ug/mL final concentration and incubated for 1 hour at room temperature protected from light. Lastly, AlphaScreen streptavidin donor beads (PerkinElmer, 6760002) were added at 40 ug/mL final concentration and incubated for 1 hour at room temperature protected from light. Plates were read at […] on the EnVision Multilabel Plate Reader (Perkin Elmer). The phospho-Tau (Thr212) AlphaLISA signal was used to plot, draw the curve fitting, and determine each compound's EC50 in Prism (GraphPad).

As for `COc1nc(N[C@@H]2CCC(F)(F)C2)nn2ccc(-c3cnc4nccn4c3)c12` [Compound 943, (R)—N-(3,3-Difluorocyclopentyl)-5-(imidazo[1,2-a]pyrimidin-6-yl)-4-methoxypyrrolo[2,1-f][1,2,4]triazin-2-amine], the IC50 in assay [1] stood at 3.6 nM. In addition, in assay [2], the EC50 came to 57.5 nM.
The corresponding values for `C[C@]1(O)CC[C@H](Nc2nc(OC3COC3)c3c(-c4ccc5nccnc5c4)ccn3n2)CC1` [Compound 392, trans-1-Methyl-4-((4-(oxetan-3-yloxy)-5-(quinoxalin-6-yl)pyrrolo[2,1-f][1,2,4]triazin-2-yl)amino)cyclohexan-1-ol] are 1.4 nM and 25.2 nM.
The corresponding values for `COc1nc(N[C@H]2CC[C@](C)(O)CC2)nn2ccc(-c3ccc4nnn(C)c4c3)c12` [Compound 3, trans-4-((4-Methoxy-5-(1-methyl-1H-benzo[d][1,2,3]triazol-6-yl)pyrrolo[2,1-f][1,2,4]triazin-2-yl)amino)-1-methylcyclohexan-1-ol] are 1.5 nM and 197 nM.
As to `COc1nc(N[C@H]2C[C@](C)(NC(C)=O)C2)nn2ccc(-c3ccc4ncnn4c3)c12` [Compound 192, N-(trans-3-((5-([1,2,4]Triazolo[1,5-a]pyridin-6-yl)-4-methoxypyrrolo[2,1-f][1,2,4]triazin-2-yl)amino)-1-methylcyclobutyl)acetamide], the IC50 in assay [1] worked out at 0.9 nM. Further, the EC50 in assay [2] came out at 18.1 nM.
